According to patent publication US11377425B1, “Small molecule modulators of IL-17” (LEO Pharma A/S, priority 2018, dated 2022):

Biological target: T1, human IL-17AA (Homo sapiens, UniProt Q16552)
T1 construct: host or cells: HEK (human embryonic kidney) cells
T1 sequence (Q16552 24-155): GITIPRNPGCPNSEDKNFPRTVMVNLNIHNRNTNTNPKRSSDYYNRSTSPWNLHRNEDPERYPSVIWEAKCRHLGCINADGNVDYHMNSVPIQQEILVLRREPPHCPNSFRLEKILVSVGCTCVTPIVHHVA
Assay: IL-8 release assay in human epithelial keratinocytes adult (HEKa)
Assay type: cell-based
Conditions: HEKa cells, 3 ng/mL HEK-human IL-17AA + 10 ng/mL human TNFalpha; read-out: Rel EC50 IL-8 release assay
Procedure, shortened: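 Adult human epidermal keratinocytes stimulated 68-72 h at 37 °C with 3 ng/mL HEK-derived human IL-17AA plus 10 ng/mL TNF-alpha (final) in the presence of compound; TNF-alpha alone defines 100% inhibition. Secreted IL-8 measured by HTRF as percent of controls; relative IC50/Emax from four-parameter fit (r^2>0.9), cytotoxicity by PrestoBlue.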

EC50 [nM] | Compound
> 1000 | Cn1cncc1-c1ccc(NC(=O)C(NC(=O)c2ccnn2C)C(c2cccc(F)c2)c2cccc(F)c2)cc1 (single isomer, unassigned) [Example 374A, N-(1,1-Bis(3-Fluorophenyl)-3-((4-(1-methyl-1H-imidazol-5-yl)phenyl)amino)-3-oxopropan-2-yl)-1-methyl-1H-pyrazole-5-carboxamide]
> 1000 | Cn1cncc1-c1ccc(NC(=O)C(NC(=O)c2ccnn2C)C(c2cccc(F)c2)c2cccc(F)c2)cc1 (single isomer, unassigned) [Example 374B, N-(1,1-Bis(3-Fluorophenyl)-3-((4-(1-methyl-1H-imidazol-5-yl)phenyl)amino)-3-oxopropan-2-yl)-1-methyl-1H-pyrazole-5-carboxamide]
100 to 1000 | CC(C)n1nccc1C(=O)NC(C(=O)Nc1ccc(-c2c(C3CC3)n[nH]c2C2CC2)cc1)C(C1CC1)C1CC1 (single isomer, unassigned) [Example 384, N-[1-(dicyclopropylmethyl)-2-[4-(3,5-dicyclopropyl-1H-pyrazol-4-yl)anilino]-2-oxo-ethyl]-2-isopropyl-pyrazole-3-carboxamide]
< 100 | CC(C)n1nccc1C(=O)NC(C(=O)Nc1ccc(-c2c(C3CC3)n[nH]c2C2CC2)cc1)C(C1CC1)C1CC1 (single isomer, unassigned) [Example 385, N-[1-(dicyclopropylmethyl)-2-[4-(3,5-dicyclopropyl-1H-pyrazol-4-yl)anilino]-2-oxo-ethyl]-2-isopropyl-pyrazole-3-carboxamide]
> 1000 | Cc1n[nH]c(C)c1-c1ccc(NC(=O)[C@@H](NC(=O)N2CCCCC2CCCO)C2CCCCC2)cc1 (single isomer, unassigned) [Example 461]
> 1000 | Cc1n[nH]c(C)c1-c1ccc(NC(=O)[C@@H](NC(=O)N2CCCC2C(C)(C)O)C2CCCCC2)cc1 (single isomer, unassigned) [Example 464]
> 1000 | Cc1n[nH]c(C)c1-c1ccc(NC(=O)[C@@H](NC(=O)N2CCCC2C(C)(C)O)C2CCCCC2)cc1 (single isomer, unassigned) [Example 465]
> 1000 | Cc1n[nH]c(C)c1-c1ccc(NC(=O)[C@@H](NC(=O)N2CCCC2CCO)C2CCCCC2)cc1 (single isomer, unassigned) [Example 467]
> 1000 | Cc1n[nH]c(C)c1-c1ccc(NC(=O)[C@@H](NC(=O)N2CCCCC2CCO)C2CCCCC2)cc1 (single isomer, unassigned) [Example 471]
> 1000 | Cc1n[nH]c(C)c1-c1ccc(NC(=O)[C@@H](NC(=O)N2CCCC2CO)C2CCCCC2)cc1 (single isomer, unassigned) [Example 473]
100 to 1000 | Cc1n[nH]c(C)c1-c1ccc(NC(=O)[C@@H](NC(=O)c2ccnn2C)C2CCCCC2)cc1 [Example 1, N-[(1S)-1-cyclohexyl-2-[4-(3,5-dimethyl-1H-pyrazol-4-yl)anilino]-2-oxo-ethyl]-2-methyl-pyrazole-3-carboxamide]
< 100 | Cc1n[nH]c(C)c1-c1ccc(NC(=O)[C@@H](NC(=O)c2ccnn2C)C2CCCCCC2)cc1 [Example 3, N-[(1S)-1-cycloheptyl-2-[4-(3,5-dimethyl-1H-pyrazol-4-yl)anilino]-2-oxo-ethyl]-2-methyl-pyrazole-3-carboxamide]
< 100 | Cc1n[nH]c(C)c1-c1ccc(NC(=O)[C@@H](NC(=O)c2ccnn2C)[C@H]2CCCc3ccc(Br)cc32)cc1 [Example 6, N-[(1S)-1-[(1S)-7-bromotetralin-1-yl]-2-[4 (3,5-dimethyl-1H-pyrazol-4-yl)anilino]-2-oxo-ethyl]-2-methyl-pyrazole-3-carboxamide]
< 100 | CCn1nccc1C(=O)N[C@H](C(=O)Nc1ccc(-c2c(C)n[nH]c2C)cc1)C1CCCCC1 [Example 9, N-[(1S)-1-cyclohexyl-2-[4-(3,5-dimethyl-1H-pyrazol-4-yl)anilino]-2-oxo-ethyl]-2-ethyl-pyrazole-3-carboxamide]
100 to 1000 | Cc1n[nH]c(C)c1-c1ccc(NC(=O)[C@@H](NC(=O)c2ccnn2C)C2CCC(F)(F)CC2)cc1 [Example 11, N-[(1S)-1-(4,4-difluorocyclohexyl)-2-[4-(3,5-dimethyl-1H-pyrazol-4-yl)anilino]-2-oxo-ethyl]-2-methyl-pyrazole-3-carboxamide]
< 100 | Cc1n[nH]c(C)c1-c1ccc(NC(=O)[C@@H](NC(=O)c2ccnn2C(C)C)C2CCC(F)(F)CC2)cc1 [Example 12, N-[(1S)-1-(4,4-difluorocyclohexyl)-2-[4-(3,5-dimethyl-1H-pyrazol-4-yl)anilino]-2-oxo-ethyl]-2-isopropyl-pyrazole-3-carboxamide]
100 to 1000 | Cc1n[nH]c(C)c1-c1ccc(NC(=O)[C@H](CC2CCCCC2)NC(=O)c2ccnn2C)cc1 [Example 15, N-[(1S)-1-(cyclohexylmethyl)-2-[4-(3,5-dimethyl-1H-pyrazol-4-yl)anilino]-2-oxo-ethyl] 2-methyl-pyrazole-3-carboxamide]
100 to 1000 | Cc1n[nH]c(C)c1-c1ccc(NC(=O)[C@H](CC2CCCCC2)NC(=O)c2ccnn2C(C)C)cc1 [Example 17, N-[(1S)-1-(cyclohexylmethyl)-2-[4-(3,5-dimethyl-1H-pyrazol-4-yl)anilino]-2-oxo-ethyl]-2-isopropyl-pyrazole-3-carboxamide]
100 to 1000 | CCn1nccc1C(=O)N[C@H](C(=O)Nc1ccc(-c2c(C)n[nH]c2C)cc1)C1CCC(F)(F)CC1 [Example 18, N-[(1S)-1-(4,4-difluorocyclohexyl)-2-[4-(3,5-dimethyl-1H-pyrazol-4-yl)anilino]-2-oxo-ethyl]-2-ethyl-pyrazole-3-carboxamide]

Continued, compound first:

Compound | EC50 [nM]
Cc1n[nH]c(C)c1-c1ccc(NC(=O)[C@@H](NC(=O)N2CCCCC2CCCO)C2CCCCC2)cc1 (single isomer, unassigned) [Example 460] | 100 to 1000
Cc1n[nH]c(C)c1-c1ccc(NC(=O)[C@@H](NC(=O)N2CCCC2CCO)C2CCCCC2)cc1 (single isomer, unassigned) [Example 466] | > 1000
Cc1n[nH]c(C)c1-c1ccc(NC(=O)[C@@H](NC(=O)N2CCCCC2CCO)C2CCCCC2)cc1 (single isomer, unassigned) [Example 470] | > 1000
Cc1n[nH]c(C)c1-c1ccc(NC(=O)[C@@H](NC(=O)N2CCCC2CO)C2CCCCC2)cc1 (single isomer, unassigned) [Example 474] | > 1000
Cc1n[nH]c(C)c1-c1ccc(NC(=O)[C@@H](NC(=O)c2ccnn2C)C(c2ccccc2)c2ccccc2)cc1 [Example 2, N-[(1S)-1-benzhydryl-2-[4-(3,5-dimethyl-1H-pyrazol-4-yl)anilino]-2-oxo-ethyl]-2-methyl-pyrazole-3-carboxamide] | 100 to 1000
Cc1n[nH]c(C)c1-c1ccc(NC(=O)[C@@H](NC(=O)c2ccnn2C)[C@@H]2CCc3ccc(Br)cc32)cc1 [Example 4, N-[(1S)-1-[(1R)-6-bromoindan-1-yl]-2[4-(3,5-dimethyl-1H-pyrazol-4-yl)anilino]-2-oxo-ethyl]-2-methyl-pyrazole-3-carboxamide] | 100 to 1000
Cc1n[nH]c(C)c1-c1ccc(NC(=O)[C@@H](NC(=O)c2ccnn2C)[C@H]2CCc3ccc(Br)cc32)cc1 [Example 5, N-[(1S)-1-[(1S)-6-bromoindan-1-yl]-2[4-(3,5-dimethyl-1H-pyrazol-4-yl)anilino]-2-oxo-ethyl]-2-methyl-pyrazole-3-carboxamide] | < 100
Cc1n[nH]c(C)c1-c1ccc(NC(=O)[C@@H](NC(=O)c2ccnn2C)[C@H]2CCCCC(F)(F)C2)cc1 [Example 7, N-[(1S)-1-[(1S)-3,3-difluorocycloheptyl]-2-[4-(3,5-dimethyl-1H-pyrazol-4-yl)anilino]-2-oxo-ethyl]-2-methyl-pyrazole-3-carboxamide] | 100 to 1000
Cc1n[nH]c(C)c1-c1ccc(NC(=O)[C@@H](NC(=O)c2ccnn2C(C)(C)C)C2CCCCC2)cc1 [Example 8, 2-tert-butyl-N-[(1S)-1-cyclohexyl-2-[4-(3,5-dimethyl-1H-pyrazol-4-yl)anilino]-2-oxo-ethyl]pyrazole-3-carboxamide] | > 1000
Cc1n[nH]c(C)c1-c1ccc(NC(=O)[C@@H](NC(=O)c2ccnn2C(C)C)C2CCCCC2)cc1 [Example 10, N-[(1S)-1-cyclohexyl-2-[4-(3,5-dimethyl-1H-pyrazol-4-yl)anilino]-2-oxo-ethyl]-2-isopropyl-pyrazole-3-carboxamide] | < 100
Cc1n[nH]c(C)c1-c1ccc(NC(=O)[C@@H](NC(=O)c2ccnn2C)C(C2CCC2)C2CCC2)cc1 [Example 13, N-[(1S)-1-[di(cyclobutyl)methyl]-2-[4-(3,5-dimethyl-1H-pyrazol-4-yl)anilino]-2-oxo-ethyl]-2-methyl-pyrazole-3-carboxamide] | < 100
CCn1nccc1C(=O)N[C@@H](CC1CCCCC1)C(=O)Nc1ccc(-c2c(C)n[nH]c2C)cc1 [Example 16, N-[(1S)-1-(cyclohexylmethyl)-2-[4-(3,5-dimethyl-1H-pyrazol-4-yl)anilino]-2-oxo-ethyl]-2-ethyl-pyrazole-3-carboxamide] | 100 to 1000
Cc1n[nH]c(C)c1-c1ccc(NC(=O)[C@@H](NC(=O)c2ccnn2C)[C@H]2CCCC(F)(F)C2)cc1 [Example 19, N-[(1S)-1-[(1S)-3,3-difluorocyclohexyl]-2-[4-(3,5-dimethyl-1H-pyrazol-4-yl)anilino]-2-oxo-ethyl]-2-methyl-pyrazole-3-carboxamide] | 100 to 1000
CCn1nccc1C(=O)N[C@H](C(=O)Nc1ccc(-c2c(C)n[nH]c2C)cc1)[C@H]1CCCC(F)(F)C1 [Example 22, N-[(1S)-1-[(1S)-3,3-difluorocyclohexyl]-2-[4-(3,5-dimethyl-1H-pyrazol-4-yl)anilino]-2-oxo-ethyl]-2-ethyl-pyrazole-3-carboxamide] | 100 to 1000
